Test results taken from the supplement of paper PMC10307832.

Legend:
Test in all cases: relative viability (nuclei count vs DMSO), 5 days (fraction); higher = more cells survive
[1] = compound: COc1cc(Nc2ncc3c(n2)-c2ccc(Cl)cc2C(c2c(F)cccc2OC)=NC3)ccc1C(=O)O [Alisertib] + CC(=O)Nc1cccc(-n2c(=O)n(C3CC3)c(=O)c3c(Nc4ccc(I)cc4F)n(C)c(=O)c(C)c32)c1 [Trametinib] (partner 0.02 µM)
Procedure, shortened: (§1)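 One day after seeding in 1536-well plates, lung cancer cell lines were dosed by pin tool. Dosing was either single-drug or a fixed anchor-drug dose plus five library-drug doses (not always all listed) in √10 steps. After 5 days, nuclei were stained in one fix-and-stain step and counted on 4× images, and relative viability is the nuclei count of treated wells over that of vehicle wells, given as the median of duplicate plates.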

[2] = compound: COc1cc(Nc2ncc3c(n2)-c2ccc(Cl)cc2C(c2c(F)cccc2OC)=NC3)ccc1C(=O)O [Alisertib] + O=C(c1cc(Cc2n[nH]c(=O)c3ccccc23)ccc1F)N1CCN(C(=O)C2CC2)CC1 [Olaparib] (partner 8 µM)
Procedure, shortened: as §1

[3] = compound: COc1cc(Nc2ncc3c(n2)-c2ccc(Cl)cc2C(c2c(F)cccc2OC)=NC3)ccc1C(=O)O [Alisertib] + CS(=O)(=O)CCNCc1ccc(-c2ccc3ncnc(Nc4ccc(OCc5cccc(F)c5)c(Cl)c4)c3c2)o1 [Lapatinib] (partner 2 µM)
Procedure, shortened: as §1

[4] = compound: COc1cc(Nc2ncc3c(n2)-c2ccc(Cl)cc2C(c2c(F)cccc2OC)=NC3)ccc1C(=O)O [Alisertib] + N=C(N)NC(=N)NCCc1ccccc1 [Phenformin] (partner 250 µM)
Procedure, shortened: as §1

Cell Line	relative viability ([1]; first compound 0.005 µM)	relative viability ([1]; first compound 0.01581 µM)	relative viability ([1]; first compound 0.05 µM)	relative viability ([1]; first compound 0.1581 µM)	relative viability ([1]; first compound 0.5 µM)	relative viability ([2]; first compound 0.005 µM)	relative viability ([2]; first compound 0.01581 µM)	relative viability ([2]; first compound 0.05 µM)	relative viability ([2]; first compound 0.1581 µM)	relative viability ([2]; first compound 0.5 µM)	relative viability ([3]; first compound 0.005 µM)	relative viability ([3]; first compound 0.01581 µM)	relative viability ([3]; first compound 0.05 µM)	relative viability ([3]; first compound 0.1581 µM)	relative viability ([3]; first compound 0.5 µM)	relative viability ([4]; first compound 0.005 µM)	relative viability ([4]; first compound 0.01581 µM)	relative viability ([4]; first compound 0.05 µM)	relative viability ([4]; first compound 0.1581 µM)	relative viability ([4]; first compound 0.5 µM)
NCI-H1944	0.414	0.408	0.272	0.251	0.173	0.402	0.381	0.318	0.201	0.178	0.769	0.829	0.764	0.36	0.188	0.182	0.206	0.193	0.166	0.112
HARA	0.722	0.769	0.348	0.12	0.207	0.763	0.703	0.17	0.328	0.146	0.616	0.631	0.848	0.129	0.0993	0.398	0.469	0.358	0.187	0.133
NCI-H2126	0.563	0.57	0.348	0.281	0.238	0.816	0.785	0.516	0.295	0.321	0.688	0.754	0.713	0.408	0.312	0.482	0.446	0.413	0.257	0.266
LXF-289	0.586	0.628	0.265	0.192	0.152	0.757	0.593	0.113	0.101	0.131	0.743	0.654	0.666	0.168	0.166	0.434	0.338	0.325	0.114	0.109
NCI-H460	0.102	0.147	0.0441	0.0212	0.0263	0.371	0.387	0.0754	0.0677	0.0562	0.977	0.8	0.29	0.0226	0.0161	0.474	0.343	0.0695	0.0235	0.0304
NCI-H1395	1.04	0.922	0.85	0.481	0.38	0.438	0.424	0.442	0.37	0.361	0.865	0.843	0.795	0.596	0.391	0.427	0.413	0.44	0.358	0.329
NCI-H2170	0.871	0.842	0.401	0.407	0.17	0.601	0.509	0.307	0.206	0.163	0.268	0.25	0.275	0.221	0.187	0.388	0.374	0.395	0.276	0.207
NCI-H2009	0.272	0.28	0.287	0.136	0.138	0.645	0.689	0.275	0.291	0.148	0.863	0.76	0.355	0.255	0.319	0.486	0.462	0.312	0.228	0.203
